Experiments:
[1] = system: Antikörperbildung gegen Schafserythrozyten (Plaquebildende Milzzellen); experiment: Antibody formation against sheep erythrocytes (JERNE plaque test, IgM plaque-forming spleen cells) in X-irradiated, bone-marrow-transplanted mice; assay type: in vivo, AB/Bln.-Mäuse
Excerpt: (§1) Zum Nachweis der immunologischen Wirkungen wurden folgende Modelle verwendet: - "Kolonien - Bildung" ("Kolonien" - Bildungstest ) durch menschliche Knochenmarkzellen nach Kultivierung der Zellen mit dem menschlichen Granulocyten - Makrophagen - "Kolonien" - stimulierenden Faktor (hGM-CSF) und Spleninderivaten. - die Antikörperbildung gegen Schafserythrozyten ( Plaquebildende Milzzellen ) durch Ab/Bln.-Mäuse nach Röntgenbestrahlung (Tabelle 2).
Es wurden drei Monate alte AB/Bln.-Mäuse einmalig mit 800 cGy röntgenbestrahlt. Danach wurden die Tiere in drei Gruppen aufgeteilt und folgendermaßen weiterbehandelt: • Gruppe 1: Nach der Bestrahlung wurde den Tieren Knochenmarkzellen von Tieren des gleichen Inzuchtstammes transplantiert (Injektion von je 5 mal 10⁶ Knochenmarkzellen pro Tier). […] In differenten Zeitabständen nach der Bestrahlung und während der DAc-hSP5-Behandlung wurde mittels des JERNE-Plaque-Testes die Fähigkeit der Tiere untersucht, Antikörper zu bilden. • Gruppe 2: Gleiche Behandlung der Tiere wie in Gruppe 1, jedoch keine Therapie der Tiere mit DAc-hSP5. • Gruppe 3: Alleinige Röntgenbestrahlung der Tiere; keine Transplantation syngener Knochenmarkzellen, keine Therapie der Tiere mit DAc-hSP5.
Fünf Tage vor der Bestimmung der IgM Plaque-bildenden Milzzellen (Tage, angegeben in Tabelle 2) wurden die Tiere mit 5 x 10⁸ Schafserythrozyten immunisiert (intaperitoneale Applikation). Methodik: Eckert et.al., Biomed. Biochem. Acta, 1985, (44), 1239.

[2] = system: menschliche Knochenmarkzellen; experiment: Colony formation test: human bone marrow cells cultured with hGM-CSF and splenin derivatives; assay type: cell-based; settings: human bone marrow cells with hGM-CSF; Tab.1, Nr.6
Excerpt: as §1
Stimulierung des Wachstums und der Reifung von Knochenmarkstammzellen (in vitro)
Die Anzahl der gebildeten "Kolonien" ist dabei ein Maß für die mitotische bzw. differenzierende Wirkung der Faktoren auf die Knochenmarkzellen. Da Thymopentin in diesem Testsystem (Tab.1, Nr.6) keine Wirkung zeigte, ist anzunehmen, daß die immunstimulierende Wirkung von Timunox nicht über eine Wirkung auf Stammzellen des Knochenmarks zustande kommt.

Substance | Effekt auf die Antikörperbildung ([1]; 1 µg per animal i.p. three times weekly) | Effekt auf die Antikörperbildung ([1]; 2 µg per animal i.p. three times weekly) | Effekt auf die Antikörperbildung ([1]; 4 µg per animal i.p. three times weekly) | Effekt auf die Antikörperbildung ([1]; 8 µg per animal i.p. three times weekly) | Effekt auf die Antikörperbildung ([1]; 10 ug per animal i.p. three times weekly) | Effekt auf die Antikörperbildung ([1]; 20 µg per animal i.p. three times weekly) | Effekt auf die Antikörperbildung ([1]; 50 µg per animal i.p. three times weekly) | Antikörperbildung (IgM Plaque-bildende Milzzellen) ([1]; 800 cGy, syngeneic bone marrow transplant, 10 µg per animal i.p. three times weekly, Tabelle 2) | Wirkung im "Kolonien"-Bildungstest (Anzahl der gebildeten "Kolonien") [2]
(N^α-Acetyl)-arginyl-(N^ε-acetyl)-lysylalanylvalyltyrosin [DAc-hSP5] | nicht wirksam | nicht wirksam | nicht wirksam | suboptimal | optimalen Effekt | Effekt wie nach der von 10 ug | Effekt wie nach der von 10 ug | beschleunigt zu einer normalen Antikörperbildung befähigt | 
Thymopentin |  |  |  |  |  |  |  |  | keine Wirkung
